Data as given in ChEMBL document CHEMBL1201862, “PubChem BioAssay data set” (2004).
The source made the active and inactive calls.

Assays:
[1] = molecular target: T1, Oxysterols receptor LXR-beta (Homo sapiens, UniProt P55055); assay: LXR agonists, Gal4 luciferase reporter, dose response, counter-screen for ssDAF-12 agonist project, cell-based, luminescence, HEK293, S. stercoralis campaign (AID 720737); assay type: functional; conditions: read-out: IC50 (the source's name)
T1 sequence (P55055 whole entry): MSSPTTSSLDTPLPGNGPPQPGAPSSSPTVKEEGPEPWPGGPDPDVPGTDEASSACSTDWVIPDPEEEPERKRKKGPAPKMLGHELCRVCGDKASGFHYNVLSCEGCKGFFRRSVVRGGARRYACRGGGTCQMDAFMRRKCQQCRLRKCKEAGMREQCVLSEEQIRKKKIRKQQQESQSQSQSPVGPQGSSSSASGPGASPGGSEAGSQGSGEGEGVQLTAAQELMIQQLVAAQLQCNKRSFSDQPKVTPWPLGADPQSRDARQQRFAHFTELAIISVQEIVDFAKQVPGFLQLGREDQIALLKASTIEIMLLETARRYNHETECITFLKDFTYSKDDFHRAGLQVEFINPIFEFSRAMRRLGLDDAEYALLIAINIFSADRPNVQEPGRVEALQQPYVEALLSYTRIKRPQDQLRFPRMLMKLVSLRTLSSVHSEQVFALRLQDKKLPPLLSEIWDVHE

[2] = Luminescence-based cell-based high throughput dose response assay to identify activators of the DAF-12 from the parasite S. stercoralis (ssDAF-12).; assay type: functional
[3] = Late stage assay provider results from the probe development effort to identify selective inhibitors of heat shock protein 90 (HSP90): Absorbance-based cell proliferation assay in SKBR3 cells.; assay type: functional; conditions: SK-BR-3
[4] = Late stage assay provider results from the probe development effort to identify selective inhibitors of heat shock protein 90 (HSP90): Absorbance-based cell proliferation assay in MCF7 cells.; assay type: functional
[5] = Dd2 malaria parasite growth inhibition potency – SYBR Green, dry powder samples, dose response (AID 1159566); assay type: functional, cell-based;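 note: potency for growth inhibition with lower SYBR green DNA signal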
[6] = COV362 cell viability loss – plate reader, dry powder, SA12, cytotoxicity control for PAX8 inhibitor project, dose response (AID 743144); assay type: functional, cell-based
[7] = toxicity to human HepG2 hepatoma cells – cell-based, plate reader, dry powder samples, cytotoxicity control, dose response (AID 1159569); assay type: functional;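 note: inhibitor potency with signal falling toward the positive control level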
[8] = inhibitors acting on PAX2 in cells – cell-based, plate reader, dry powder samples, selectivity assay for PAX8 inhibitor project, dose response (AID 743048); assay type: functional;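 note: HEK293 cells carrying a WT1 promoter luciferase reporter driven by expressed Pax2; potency is for inhibition of Pax2 driven reporter signal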
[9] = OV-90 cell viability loss – plate reader, dry powder, SA8, PAX8 inhibitor project, dose response (AID 743149); assay type: functional, cell-based
[10] = PAX5 cellular inhibition readout – cell-based, plate reader, dry powder samples, selectivity assay for PAX8 inhibitor project, dose response (AID 743047); assay type: functional;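 note: HEK293 cells carrying a Pax5 driven CD19 promoter luciferase reporter; potency of inhibitors that lower reporter luminescence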
[11] = OVCAR-3 cell viability loss – plate reader, dry powder samples, PAX8 inhibitor project, dose response (AID 743044); assay type: functional, cell-based
[12] = PAX8-dependent cell viability loss – plate reader, dry powder, dose response (AID 743049); assay type: functional, cell-based
[13] = growth inhibition of PfATP4-mutant resistant parasites – NITD609-resistant line, SYBR Green, dry powder, dose response (AID 1159571); assay type: functional, cell-based;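 note: parasites synchronized at ring stage by sorbitol before testing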
[14] = P. falciparum Dd2 growth inhibitors, dose response, SYBR Green, cherry-picked samples (AID 1159567); assay type: functional, cell-based
[15] = OVCAR4 cell viability loss – plate reader, dry powder, SA11, cytotoxicity control for PAX8 inhibitor project, dose response (AID 743150); assay type: functional, cell-based; conditions: OVCAR-4
[16] = COV434 cell viability loss – plate reader, dry powder, SA7, cytotoxicity control for PAX8 inhibitor project, dose response (AID 743145); assay type: functional, cell-based
[17] = toxicity to human hepatoma HepG2 cells – cell-based, cherry-picked samples, cytotoxicity control, dose response (AID 1159577); assay type: functional
[18] = molecular target: Paired box protein Pax-8 (Homo sapiens, UniProt Q06710); assay: PAX8 transcriptional activity inhibition in RMG-I – RMG-I cells, luciferase, cherry-pick, dose response (AID 687027); assay type: functional, cell-based;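 note: luciferase reporter driven by Pax8 target thyroperoxidase promoter measured by SteadyGlo luminescence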
[19] = growth inhibition of yeast DHODH-expressing 3D7 parasites – SYBR Green, dry powder samples, dose response (AID 1159570); assay type: functional, cell-based;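 note: parasite growth measured after 72 hours of compound exposure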
[20] = viability loss in CEM21 cells – cell-based, plate reader, dry powder, cytotoxicity control, dose response (AID 687026); assay type: functional
[21] = molecular target: Disintegrin and metalloproteinase domain-containing protein 17 (Homo sapiens, UniProt P78536); assay: exosite inhibitors of ADAM17, dose response, biochemical (AID 743260)
[22] = inhibition of ADAM10 peptide cleavage – biochemical, FRET peptide substrate, recombinant human ADAM10, selectivity assay for ADAM17 exosite inhibitor project, dose response (AID 743259);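 note: ADAM10 enzyme cleaving a FRET peptide substrate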

Sequence of Paired box protein Pax-8 (Q06710 whole entry): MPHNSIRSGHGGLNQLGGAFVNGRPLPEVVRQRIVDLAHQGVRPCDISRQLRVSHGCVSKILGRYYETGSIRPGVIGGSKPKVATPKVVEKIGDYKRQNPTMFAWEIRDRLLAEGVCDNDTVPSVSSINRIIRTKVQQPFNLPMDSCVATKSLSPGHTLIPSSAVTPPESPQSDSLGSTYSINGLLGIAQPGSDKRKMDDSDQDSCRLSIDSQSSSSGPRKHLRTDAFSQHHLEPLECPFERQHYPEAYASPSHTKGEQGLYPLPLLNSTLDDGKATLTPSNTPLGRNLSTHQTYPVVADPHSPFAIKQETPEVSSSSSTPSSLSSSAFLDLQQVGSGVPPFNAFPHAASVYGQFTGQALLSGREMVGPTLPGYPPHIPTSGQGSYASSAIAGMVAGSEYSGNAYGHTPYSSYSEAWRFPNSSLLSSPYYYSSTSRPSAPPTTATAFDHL
Sequence of Disintegrin and metalloproteinase domain-containing protein 17 (P78536 whole entry, the tested form may be a part): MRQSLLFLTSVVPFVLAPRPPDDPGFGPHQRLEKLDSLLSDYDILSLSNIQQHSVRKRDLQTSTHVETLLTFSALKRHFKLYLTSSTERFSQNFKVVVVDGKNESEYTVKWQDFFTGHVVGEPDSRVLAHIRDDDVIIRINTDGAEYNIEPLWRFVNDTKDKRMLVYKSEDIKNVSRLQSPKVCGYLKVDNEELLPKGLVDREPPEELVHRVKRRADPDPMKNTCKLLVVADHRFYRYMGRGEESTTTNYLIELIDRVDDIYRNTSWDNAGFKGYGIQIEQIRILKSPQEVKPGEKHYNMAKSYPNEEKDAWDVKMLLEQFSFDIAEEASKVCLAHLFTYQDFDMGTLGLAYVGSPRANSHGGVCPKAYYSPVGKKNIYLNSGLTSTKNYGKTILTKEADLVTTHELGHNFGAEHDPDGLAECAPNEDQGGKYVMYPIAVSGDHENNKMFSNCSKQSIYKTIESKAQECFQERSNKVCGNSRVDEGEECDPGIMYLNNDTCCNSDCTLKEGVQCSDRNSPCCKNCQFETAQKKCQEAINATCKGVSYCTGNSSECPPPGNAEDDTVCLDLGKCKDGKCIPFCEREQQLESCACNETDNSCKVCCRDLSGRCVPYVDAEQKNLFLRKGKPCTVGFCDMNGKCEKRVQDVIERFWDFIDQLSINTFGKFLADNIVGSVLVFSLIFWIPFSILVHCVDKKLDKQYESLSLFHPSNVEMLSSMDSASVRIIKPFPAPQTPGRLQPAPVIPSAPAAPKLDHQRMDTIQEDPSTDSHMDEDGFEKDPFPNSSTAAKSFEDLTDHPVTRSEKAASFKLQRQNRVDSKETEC

CCOc1ccccc1-n1nnnc1SCc1nc2ccccc2s1
EC50 [1]: > 67.5 µM (inactive)
IC50 [2]: > 67.5 µM (inactive)

O=C1OC(=O)/C(=C\NCCc2ccccc2)C=C1Br
IC50 [3]: 3.7 µM (active)
IC50 [4]: 2.1 µM (active)

COc1cccc(C#Cc2ccc([C@H]3[C@@H](CO)N(C(=O)C4CCCCC4)[C@H]3C#N)cc2)c1
AC50 [5]: 1.21 µM (active)
AC50 [6]: 23.2 µM (active)
AC50 [7]: 46.6 µM (active)
AC50 [8]: 16.8 µM (active)
AC50 [9]: 24.7 µM (active)
AC50 [10]: 11.9 µM (active)
AC50 [11]: 46.6 µM (active)
AC50 [12]: 8.27 µM (active)
AC50 [13]: 2.15 µM (active)
AC50 [14]: 0.833 µM (active)
AC50 [15]: 7.73 µM (active)
AC50 [16]: 17.4 µM (active)
AC50 [17]: 36.2 µM (active)
AC50 [18]: 3.39 µM (active)
AC50 [19]: 1.86 µM (active)

CCOc1ccc(S(=O)(=O)NC(C)c2ccncc2)cc1 (configuration not stated)
AC50 [20]: > 70 µM (inactive)

Cc1ccc(C2=NS(=O)(=O)N(C)C(C(=O)Nc3ccc4c(c3)OCO4)=C2)cc1
IC50 [21]: > 69.5 µM (inactive)
IC50 [22]: 19 µM (inactive)
